We go through eight compounds from patent publication US20100311714A1, “1H-IMIDAZO[4,5-c]QUINOLINONE COMPOUNDS” (priority 2009, published 2010).

Test [1] concerns the target T1, PI3K alfa (Homo sapiens, UniProt P42336).
T1 construct: His tag (C); made in house; host or cells: baculovirus BV1075; Tn5 (Trichoplusia ni) or TiniPro insect cells
Description: PI3K alpha kinase assay (Kinase-Glo luminescence). Particulars: read-out: EPK_PI3Kalfa/IC50. The class given is biochemical. A digest of the protocol:
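Kinase-Glo luminescence read of ATP remaining after PI3Kα (10 nM) phosphorylates 10 μg/mL bovine liver phosphatidylinositol with 1 μM ATP, pH 7.5 TRIS, 3 mM MgCl2, 0.05% CHAPS; 60 min at room temperature. IC50 from 4-parameter logistic fit over 8 concentrations.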
For orientation: Kinase-Glo reads ATP consumption through a luciferase reaction.

Test [2] has as its system S6 Ribosomal Protein phosphorylation Ser235/236 in TSC1 null mouse embryo fibroblast (MEF) cells. In words: Reverse protein array, S6 Ribosomal Protein phosphorylation in TSC1 null MEF cells. The class given is cell-based. As to conditions: 1 h, TSC1-/- MEFs, 60 minutes, read-out: p-S6 IC50. A digest of the protocol: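 Phospho-S6 (Ser235/236) was quantified by reverse protein array of cell lysates with a phospho-specific primary antibody. […]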

The structures appear in SMILES notation.

T1 sequence (P42336 with tags, fused parts or gaps limits assumed): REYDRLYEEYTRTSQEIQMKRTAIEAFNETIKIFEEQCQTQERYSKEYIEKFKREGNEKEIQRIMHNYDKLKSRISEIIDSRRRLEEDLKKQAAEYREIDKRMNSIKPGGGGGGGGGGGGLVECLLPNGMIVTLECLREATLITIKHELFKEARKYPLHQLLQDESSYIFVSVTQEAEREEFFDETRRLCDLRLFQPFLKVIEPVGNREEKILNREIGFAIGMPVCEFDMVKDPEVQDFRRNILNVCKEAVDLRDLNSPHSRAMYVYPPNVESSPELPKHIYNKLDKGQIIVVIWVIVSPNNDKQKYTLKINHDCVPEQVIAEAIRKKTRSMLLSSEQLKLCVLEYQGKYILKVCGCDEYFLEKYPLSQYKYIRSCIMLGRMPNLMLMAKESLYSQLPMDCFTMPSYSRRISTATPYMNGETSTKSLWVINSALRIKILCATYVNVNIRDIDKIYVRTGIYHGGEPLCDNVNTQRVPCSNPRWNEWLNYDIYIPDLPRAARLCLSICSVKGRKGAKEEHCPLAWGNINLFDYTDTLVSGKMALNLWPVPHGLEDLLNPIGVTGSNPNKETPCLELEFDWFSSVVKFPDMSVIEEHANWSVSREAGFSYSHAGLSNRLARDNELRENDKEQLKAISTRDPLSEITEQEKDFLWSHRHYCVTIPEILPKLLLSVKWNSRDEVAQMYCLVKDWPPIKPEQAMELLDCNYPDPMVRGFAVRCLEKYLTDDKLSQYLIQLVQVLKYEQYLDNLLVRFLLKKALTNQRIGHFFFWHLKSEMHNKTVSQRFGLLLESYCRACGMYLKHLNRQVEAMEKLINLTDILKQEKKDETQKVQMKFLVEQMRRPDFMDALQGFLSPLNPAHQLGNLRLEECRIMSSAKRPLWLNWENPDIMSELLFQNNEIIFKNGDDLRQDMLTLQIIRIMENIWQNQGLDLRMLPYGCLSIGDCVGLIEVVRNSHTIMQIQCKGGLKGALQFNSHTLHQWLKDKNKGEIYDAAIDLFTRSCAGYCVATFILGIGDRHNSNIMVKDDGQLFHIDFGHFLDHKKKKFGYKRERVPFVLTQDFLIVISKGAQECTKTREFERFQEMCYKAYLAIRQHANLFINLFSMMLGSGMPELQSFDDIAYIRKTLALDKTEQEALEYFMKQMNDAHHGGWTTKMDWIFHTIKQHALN

For the compound `COCCOc1ccc(-n2c(=O)n(C)c3cnc4ccc(-c5cncc(N6CCC6)c5)cc4c32)c(C)n1` [Example 22.2, 8-(5-Azetidin-1-yl-pyridin-3-yl)-1-[6-(2-methoxy-ethoxy)-2-methyl-pyridin-3-yl]-3-methyl-1,3-dihydro-imidazo[4,5-c]quinolin-2-one], the IC50 in test [1] is 171 nM; in test [2], 2 nM.

For `COCCOc1ccc(-n2c(=O)n(C)c3cnc4ccc(-c5cnc(COC)c(OC)c5)cc4c32)c(C)n1` [Example 22.3, 1-[6-(2-Methoxy-ethoxy)-2-methyl-pyridin-3-yl]-8-(5-methoxy-6-methoxymethyl-pyridin-3-yl)-3-methyl-1,3-dihydro-imidazo[4,5-c]quinolin-2-one], the IC50 in test [1] is 164 nM; in test [2], 15 nM.

For the compound `Cc1nc(N2CC(F)(F)C2)ccc1-n1c(=O)n(C)c2cnc3ccc(-c4cncc(C(C)(C)O)c4)cc3c21` [Example 24.2, 1-[6-(3,3-Difluoro-azetidin-1-yl)-2-methyl-pyridin-3-yl]-8-[5-(1-hydroxy-1-methyl-ethyl)-pyridin-3-yl]-3-methyl-1,3-dihydro-imidazo[4,5-c]quinolin-2-one], the IC50 in test [1] stood at 10 nM; in test [2], 1 nM.

In the case of `CCNc1cc(-c2ccc3ncc4c(c3c2)n(-c2ccc(N3CC(F)(F)C3)nc2C)c(=O)n4C)cnc1CO` [Example 24.3, 1-[6-(3,3-Difluoro-azetidin-1-yl)-2-methyl-pyridin-3-yl]-8-(5-ethylamino-6-hydroxymethyl-pyridin-3-yl)-3-methyl-1,3-dihydro-imidazo[4,5-c]quinolin-2-one], the IC50 in test [1] is 11 nM; in test [2], below 0.457 nM.

`CNc1ccc(-c2ccc3ncc4c(c3c2)n(-c2ccc(N3CCCC3)nc2C)c(=O)n4C)cn1` [Example 25.1, 3-Methyl-8-(6-methylamino-pyridin-3-yl)-1-(2-methyl-6-pyrrolidin-1-yl-pyridin-3-yl)-1,3-dihydro-imidazo[4,5-c]quinolin-2-one]: the IC50 came out at 35 nM in test [1] and 1 nM in test [2].

Consider `Cc1nc(N2CCC(O)C2)ccc1-n1c(=O)n(C)c2cnc3ccc(-c4cncc(OC(C)C)c4)cc3c21` (stereo not shown) [Example 27.1, 1-[6-(3-Hydroxy-pyrrolidin-1-yl)-2-methyl-pyridin-3-yl]-8-(5-isopropoxy-pyridin-3-yl)-3-methyl-1,3-dihydro-imidazo[4,5-c]quinolin-2-one], for which the IC50 in test [1] was determined as 21 nM; in test [2], 2 nM.

For the compound `CNc1cc(-c2ccc3ncc4c(c3c2)n(-c2ccc(C(F)(F)F)nc2C)c(=O)n4C)cnc1CO` [Example 33.2, 8-(6-Hydroxymethyl-5-methylamino-pyridin-3-yl)-3-methyl-1-(2-methyl-6-trifluoromethyl-pyridin-3-yl)-1,3-dihydro-imidazo[4,5-c]quinolin-2-one], the IC50 in test [1] is 15 nM; in test [2], 2 nM.

On to `Cc1nc(N2CC(F)(F)C(F)(F)C2)ccc1-n1c(=O)n(C)c2cnc3ccc(-c4cncc(C(C)(C)O)c4)cc3c21` [Example 35.1, 8-[5-(1-Hydroxy-1-methyl-ethyl)-pyridin-3-yl]-3-methyl-1-[2-methyl-6-(3,3,4,4-tetrafluoro-pyrrolidin-1-yl)-pyridin-3-yl]-1,3-dihydro-imidazo[4,5-c]quinolin-2-one], for which the IC50 in test [1] turned out to be 7 nM; in test [2], 0.79 nM.
